Measurements: article PMC6892255, “Identification of a potent small-molecule inhibitor of bacterial DNA repair that potentiates quinolone antibiotic activity in methicillin-resistant Staphylococcus aureus^” (Bioorganic & Medicinal Chemistry, 2019)
“Also recorded” adds a separate entry of the source.

Assays:
Assay type in all cases: cell-based, Staphylococcus aureus
[1] = tested on: SOS response in JE2 cells; test: SOS reporter assay (GFP under control of the recA promoter); settings: for SOS response (normalized GFP fluorescence/cell): JE2 recA-GFP reporter, SOS activated with CFX (10 µM), titration of compound
Excerpt: A SOS reporter system was generated by transformation of JE2 cells with a plasmid containing GFP under control of the recA promoter. Activation of the SOS response in these cells results in expression of GFP which can be monitored by fluorescence intensity. […] IMP-1700 (10) was coupled with N-Boc-ethylenediamine to afford amide 19, followed by removal of the Boc group in 4 M HCl/dioxane and purification using strong cation exchange resin. The resulting free amine 20 was coupled to N-hydroxysuccinimide (NHS)-activated Sepharose resin at 4 °C overnight (Figure 2C), and the remaining NHS sites quenched in Tris buffer. SoluBL21 competent E. coli were transformed with pET28b^+ containing StrepII-tagged AddA and hexahistidine-tagged AddB, and expression induced overnight at 16 °C. […] Beads were washed three times with lysis buffer and bound protein eluted with SDS-PAGE sample buffer, followed by PAGE separation. […]
JE2 transformed with SOS-inducible pCN34 PrecA-gfp reporter plasmid expressing GFP under the control of the recA promoter were grown to late stationary phase at 37 °C in MHB containing kanamycin (90 μg/mL). Stationary phase JE2 culture (1 mL) was centrifuged (17,000 × g, 2 min), the supernatant removed and cells resuspended in assay media (12.5 µM […]
concentration was maintained >12.5 µM and DMSO concentration maintained at 1.5% (v/v).
JE2 culture (20 uL) was added to inhibitor solutions (180 µL) to a final cell density of 4 x 10^7 CFU/mL and samples incubated in a M200-PRO microplate reader (Tecan) at 37 °C with 700 rpm agitation for 17 h. GFP fluorescence intensity and OD600 were measured at 15 min intervals. Measurements were background corrected against no-inocula control and normalized to no-test inhibitor control at mid-exponential growth phase (4.5 h) for dose-response analysis. […]

[2] = tested on: methicillin-resistant S. aureus (MRSA, USA300 JE2); test: MIC / growth inhibition assay (end-point OD600), single agent
Excerpt: Minimum inhibitory concentration (MIC) assays were used to evaluate the antimicrobial activity of compounds against Gram-negative (E. coli) and Gram-positive (S. aureus) bacteria. […] Gram-positive bacteria are more susceptible to small-molecule penetration, and compounds were therefore assessed for growth inhibition against the S. aureus SH1000 strain.
Methicillin-resistant S. aureus (MRSA) is a multi-drug resistant bacterium responsible for a large number of nosocomial infections.[34] The emergence of community associated (CA)-MRSA capable of infection of healthy individuals highlights its significance and clinical relevance.[35]
(§1) 2.1. Biological and biochemical methods
(§2) Bacterial strains and culture conditions
(§3) Strains utilized in the present study are detailed in Table S1. All strains used were cultivated on Mueller Hinton Agar (MHA) and grown to stationary-phase in Mueller Hinton Broth (MHB) at 37 °C for 16 h, with shaking at 180 r.p.m.
(§4) Minimum inhibitory concentration (MIC) assays
(§5) MIC assays were performed in 96 well plates and MICs were determined in accordance with the broth microdilution protocol.4 Strains grown to stationary-phase in MHB were adjusted to 5 x 10^5 colony-forming units (CFU)/mL in fresh MHB (100 µL/well) supplemented with DMSO to ensure a constant concentration of 0.5% (v/v) DMSO across all experiments. Where […]
(§6) or H2O2 (200 μM). Test compounds were prepared as two-fold serial dilutions. Cells were […]
(§7) as the lowest concentration with no visible bacterial growth, and the optical density at 600 nm (OD600) was recorded. OD600 measurements were background corrected against no-inocula control and normalized to DMSO control for dose-response analysis. The EC50 value mean and SEM were calculated from individual EC50 values from three biological replicates. […]

[3] = tested on: MRSA (USA300 JE2); test: Growth inhibition in the presence of mitomycin-C
Protocol: The analogue panel was further tested for potentiation of alternative DNA-damaging agents Mitomycin-C (MMC) and hydrogen peroxide (Table S2), which function via alkylation and oxidization DNA bases, respectively.
as §1, §2, §3, §4, §5, §6, §7

Compound: O=C(O)c1cn(C2CC2)c2cc(N3CCN(C(=S)Nc4ccc(C(F)(F)F)cc4)CC3)c(F)cc2c1=O [Compound 10]
- Effect on cell number (OD600) in SOS reporter assay ([1]; JE2 recA-GFP reporter with CFX (10 µM)): decrease in cell number at low micromolar concentrations
- SOS response (normalized GFP fluorescence/cell) [1]: decreased
- SOS response (normalized GFP fluorescence/cell) ([1]; listed as IMP-1700): decreased normalized GFP fluorescence/cell; also recorded: decreased SOS response
- EC50 ([2]; Staphylococcus aureus, 18 h, read-out: EC50 S. aureus (USA300 JE2) Compound only, single agent, end-point OD600 after 18 h): 3800 ± 500 nM
- fold less potent against JE2 compared to SH1000 ([2]; ratio of single-agent EC50 values): > 20 fold
- Potentiation of Mitomycin-C (MMC) ([3]; JE2): did not potentiate
- EC50 ([3]; read-out: EC50 Compound + MMC (0.40 µM), MRSA USA300 JE2, mitomycin-C 0.40 µM): 1400 ± 300 nM
